What was measured:
[1] = Inhibition of Tel-fused LCK expressed in mouse BAF3 cells
[2] = Inhibition of Tel-fused KDR expressed in mouse BAF3 cells
[3] = Inhibition of Tel-fused SRC expressed in mouse BAF3 cells
[4] = Inhibition of Tel-fused LYN expressed in mouse BAF3 cells

Row | SMILES | IC50 [1] | IC50 [2] | IC50 [3] | IC50 [4]
1 | Cc1ccc(NC(=O)c2cccc(C(F)(F)F)c2)cc1Nc1nc2ccccc2n1-c1cc(NCCCN2CCN(C)CC2)ncn1 [N-(4-methyl-3-(1-(6-(3-(4-methylpiperazin-1-yl)propylamino)pyrimidin-4-yl)-1H-benzo[d]imidazol-2-ylamino)phenyl)-3-(trifluoromethyl)benzamide] | 25 nM | 582 nM | 601 nM | 149 nM
2 | Cc1cccc(NC(=O)c2ccc(C)c(Nc3nc4ccccc4n3-c3cc(NCCN4CCN(C)CC4)ncn3)c2)c1 [4-methyl-3-(1-(6-(2-(4-methylpiperazin-1-yl)ethylamino)pyrimidin-4-yl)-1H-benzo[d]imidazol-2-ylamino)-N-m-tolylbenzamide] | 762 nM | 2090 nM | 1540 nM | 1660 nM
3 | Cc1ccc(NC(=O)c2cccc(C(F)(F)F)c2)cc1Nc1nc2ccccc2n1-c1cc(NC2CCN(C)CC2)ncn1 [N-(4-methyl-3-(1-(6-(1-methylpiperidin-4-ylamino)pyrimidin-4-yl)-1H-benzo[d]imidazol-2-ylamino)phenyl)-3-(trifluoromethyl)benzamide] | 881 nM | 1710 nM | 1380 nM | 1420 nM
4 | Cc1ccc(NC(=O)c2ccncc2Cl)cc1Nc1nc2ccccc2n1-c1cc(N)ncn1 [N-(3-(1-(6-aminopyrimidin-4-yl)-1H-benzo[d]imidazol-2-ylamino)-4-methylphenyl)-3-chloroisonicotinamide] | 890 nM | – | > 10000 nM | 595 nM
5 | COc1cc(-n2c(Nc3cc(NC(=O)c4cccc(C(F)(F)F)c4)ccc3C)nc3ccccc32)ncn1 [N-(3-(1-(6-methoxypyrimidin-4-yl)-1H-benzo[d]imidazol-2-ylamino)-4-methylphenyl)-3-(trifluoromethyl)benzamide] | > 10000 nM | > 10000 nM | > 10000 nM | > 10000 nM
6 | Cc1ccc(NC(=O)c2cc(OC3CCN(C)CC3)cc(C(F)(F)F)c2)cc1Nc1nc2ccccc2n1-c1cc(N)ncn1 [N-(3-(1-(6-aminopyrimidin-4-yl)-1H-benzo[d]imidazol-2-ylamino)-4-methylphenyl)-3-(1-methylpiperidin-4-yloxy)-5-(trifluoromethyl)benzamide] | 7 nM | 66 nM | 39 nM | 5 nM
7 | CCN(CC)CCCCNc1cc(-n2c(Nc3cc(C(=O)Nc4cccc(C)c4)ccc3C)nc3ccccc32)ncn1 [3-(1-(6-(4-(diethylamino)butylamino)pyrimidin-4-yl)-1H-benzo[d]imidazol-2-ylamino)-4-methyl-N-m-tolylbenzamide] | 406 nM | 1360 nM | 1060 nM | 1320 nM
8 | Cc1ccc(NC(=O)c2cc(C(C)(C)C)nn2C)cc1Nc1nc2ccccc2n1-c1cc(N)ncn1 [N-(3-(1-(6-aminopyrimidin-4-yl)-1H-benzo[d]imidazol-2-ylamino)-4-methylphenyl)-3-tert-butyl-1-methyl-1H-pyrazole-5-carboxamide] | 224 nM | 451 nM | 959 nM | –
9 | Cc1ccc(C(=O)Nc2cccc(C(C)(C)C)c2)cc1Nc1nc2ccccc2n1-c1cc(N)ncn1 [3-(1-(6-aminopyrimidin-4-yl)-1H-benzo[d]imidazol-2-ylamino)-N-(3-tert-butylphenyl)-4-methylbenzamide] | 16 nM | 52 nM | 202 nM | 16 nM
10 | CCN1CCN(Cc2ccc(C(=O)Nc3ccc(C)c(Nc4nc5ccccc5n4-c4cc(N)ncn4)c3)cc2Cl)CC1 [N-(3-(1-(6-aminopyrimidin-4-yl)-1H-benzo[d]imidazol-2-ylamino)-4-methylphenyl)-3-chloro-4-((4-ethylpiperazin-1-yl)methyl)benzamide] | 5 nM | 30 nM | 47 nM | 10 nM
11 | Cc1ccc(C(=O)Nc2cccc(C(F)(F)F)c2)cc1Nc1nc2ccccc2n1-c1cc(NCCCN2CCN(C)CC2)ncn1 [4-methyl-3-(1-(6-(3-(4-methylpiperazin-1-yl)propylamino)pyrimidin-4-yl)-1H-benzo[d]imidazol-2-ylamino)-N-(3-(trifluoromethyl)phenyl)benzamide] | 23 nM | 117 nM | 364 nM | 84 nM
12 | Cc1ccc(NC(=O)c2cccc(Cl)c2)cc1Nc1nc2ccccc2n1-c1cc(N)ncn1 [N-(3-(1-(6-aminopyrimidin-4-yl)-1H-benzo[d]imidazol-2-ylamino)-4-methylphenyl)-3-chlorobenzamide] | 84 nM | 576 nM | 650 nM | –
13 | Cc1ccc(C(=O)Nc2cccc(C(N)=O)c2)cc1Nc1nc2ccccc2n1-c1cc(N)ncn1 [3-(1-(6-aminopyrimidin-4-yl)-1H-benzo[d]imidazol-2-ylamino)-N-(3-carbamoylphenyl)-4-methylbenzamide] | > 10000 nM | > 10000 nM | > 10000 nM | > 10000 nM
14 | Cc1ccc(NC(=O)c2cccc(C(F)(F)F)c2)cc1Nc1nc2ccccc2n1-c1cc(NCCCC2COCCN2)ncn1 (stereo not drawn) [N-(4-methyl-3-(1-(6-(3-(morpholin-3-yl)propylamino)pyrimidin-4-yl)-1H-benzo[d]imidazol-2-ylamino)phenyl)-3-(trifluoromethyl)benzamide] | 40 nM | 318 nM | 600 nM | 67 nM
15 | Cc1ccc(NC(=O)c2cccc(C(F)(F)F)c2)cc1Nc1nc2ccccc2n1-c1cc(NCCO)ncn1 [N-(3-(1-(6-(2-hydroxyethylamino)pyrimidin-4-yl)-1H-benzo[d]imidazol-2-ylamino)-4-methylphenyl)-3-(trifluoromethyl)benzamide] | 229 nM | 590 nM | 1700 nM | 400 nM
16 | COCCNc1cc(-n2c(Nc3cc(NC(=O)c4cccc(C(F)(F)F)c4)ccc3C)nc3ccccc32)ncn1 [N-(3-(1-(6-(2-methoxyethylamino)pyrimidin-4-yl)-1H-benzo[d]imidazol-2-ylamino)-4-methylphenyl)-3-(trifluoromethyl)benzamide] | – | 296 nM | 606 nM | 126 nM
17 | Cc1ccc(NC(=O)c2ccncc2C(C)(C)C)cc1Nc1nc2ccccc2n1-c1cc(N)ncn1 [N-(3-(1-(6-aminopyrimidin-4-yl)-1H-benzo[d]imidazol-2-ylamino)-4-methylphenyl)-3-tert-butylisonicotinamide] | – | – | 56 nM | –

Next, values leading:

Row | IC50 [1] | IC50 [2] | IC50 [3] | IC50 [4] | SMILES
18 | 470 nM | 1750 nM | 1290 nM | 1470 nM | Cc1ccc(NC(=O)c2cccc(C(F)(F)F)c2)cc1Nc1nc2ccccc2n1-c1cc(NCCN)ncn1 [N-(3-(1-(6-(2-aminoethylamino)pyrimidin-4-yl)-1H-benzo[d]imidazol-2-ylamino)-4-methylphenyl)-3-(trifluoromethyl)benzamide]
19 | 238 nM | 941 nM | 903 nM | – | Cc1ccc(NC(=O)c2cccc(C(F)(F)F)c2)cc1Nc1nc2ccccc2n1-c1cc(NCCC2CCCN2)ncn1 (stereo not drawn) [N-(4-methyl-3-(1-(6-(2-(pyrrolidin-2-yl)ethylamino)pyrimidin-4-yl)-1H-benzo[d]imidazol-2-ylamino)phenyl)-3-(trifluoromethyl)benzamide]
20 | 3 nM | 43 nM | 47 nM | 6 nM | Cc1ccc(NC(=O)c2cc(N3CCN(C)CC3)cc(C(F)(F)F)c2)cc1Nc1nc2ccccc2n1-c1cc(N)ncn1 [N-(3-(1-(6-aminopyrimidin-4-yl)-1H-benzo[d]imidazol-2-ylamino)-4-methylphenyl)-3-(4-methylpiperazin-1-yl)-5-(trifluoromethyl)benzamide]
21 | 531 nM | 1500 nM | 1270 nM | 1380 nM | Cc1cccc(NC(=O)c2ccc(C)c(Nc3nc4ccccc4n3-c3cc(NCCCCN(C)C)ncn3)c2)c1 [3-(1-(6-(4-(dimethylamino)butylamino)pyrimidin-4-yl)-1H-benzo[d]imidazol-2-ylamino)-4-methyl-N-m-tolylbenzamide]
22 | 108 nM | 1360 nM | 1210 nM | 399 nM | Cc1ccc(NC(=O)c2cccc(C(F)(F)F)c2)cc1Nc1nc2ccccc2n1-c1cc(NCCCCN(C)C)ncn1 [N-(3-(1-(6-(4-(dimethylamino)butylamino)pyrimidin-4-yl)-1H-benzo[d]imidazol-2-ylamino)-4-methylphenyl)-3-(trifluoromethyl)benzamide]
23 | 38 nM | 249 nM | 556 nM | 134 nM | Cc1ccc(C(=O)Nc2cccc(C(F)(F)F)c2)cc1Nc1nc2ccccc2n1-c1cc(NCCCCN(C)C)ncn1 [3-(1-(6-(4-(dimethylamino)butylamino)pyrimidin-4-yl)-1H-benzo[d]imidazol-2-ylamino)-4-methyl-N-(3-(trifluoromethyl)phenyl)benzamide]
24 | 41 nM | 885 nM | – | 217 nM | CCN(CC)CCCCNc1cc(-n2c(Nc3cc(NC(=O)c4cccc(C(F)(F)F)c4)ccc3C)nc3ccccc32)ncn1 [N-(3-(1-(6-(4-(diethylamino)butylamino)pyrimidin-4-yl)-1H-benzo[d]imidazol-2-ylamino)-4-methylphenyl)-3-(trifluoromethyl)benzamide]
25 | 2700 nM | 9070 nM | – | 3300 nM | Cc1ccc(NC(=O)c2cccc(C(F)(F)F)c2)cc1Nc1nc2ccccc2n1-c1cc(Cl)ncn1 [N-(3-(1-(6-chloropyrimidin-4-yl)-1H-benzo[d]imidazol-2-ylamino)-4-methylphenyl)-3-(trifluoromethyl)benzamide]
26 | 52 nM | 243 nM | – | 140 nM | CCN(CC)CCCCNc1cc(-n2c(Nc3cc(C(=O)Nc4cccc(C(F)(F)F)c4)ccc3C)nc3ccccc32)ncn1 [3-(1-(6-(4-(diethylamino)butylamino)pyrimidin-4-yl)-1H-benzo[d]imidazol-2-ylamino)-4-methyl-N-(3-(trifluoromethyl)phenyl)benzamide]

Source: BindingDB's records for doi:10.1016/j.bmcl.2009.09.123 (Genomics Institute of The Novartis Research Foundation, 2009)
